# Assay results as given in patent US20090131468A1, “Bis-(Sulfonylamino) Derivatives in Therapy 065” (AstraZeneca AB, priority 2007, published 2009).
# Target: T1, human mPGES-1 (Homo sapiens, UniProt O14684)
# T1 sequence (O14684 1-152): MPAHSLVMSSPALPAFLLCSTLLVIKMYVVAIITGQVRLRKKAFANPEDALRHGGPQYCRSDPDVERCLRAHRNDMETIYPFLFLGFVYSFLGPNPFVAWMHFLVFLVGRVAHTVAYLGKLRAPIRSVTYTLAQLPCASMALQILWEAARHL
# Experiment: Microsomal prostaglandin E synthase biochemical assay
# Conditions: microsome preparation containing human mPGES-1; PGH2 10.8 μM, GSH 2.5 mM, pH 6.8; PGE2 quantified by HTRF; average of at least n=2
# Procedure: Compounds were tested as inhibitors of microsomal prostaglandin E synthase activity in microsomal prostaglandin E synthase assays and whole cell assays. These assays measure prostaglandin E2 (PGE2) synthesis which is taken as a measure of prostaglandin E synthase activity. Microsomal prostaglandin E synthase biochemical assays used microsomal prostaglandin E synthase-1 in microsomal preparations. The source of the microsomes can be for example interleukin-1β-stimulated human A549 cells (which express human mPGES-1) or Sf9 cells transfected with plasmids encoding human mPGES-1 cDNA.
# A solution of test compound was added to a diluted microsome preparation containing human mPGES-1 and pre-incubated for 15 minutes in potassium phosphate buffer pH 6.8 with cofactor glutathione (GSH). Corresponding solutions without test compound were used as positive controls, and corresponding solutions without test compound and without microsomes were used as negative controls. The enzymatic reaction was then started by addition of the substrate PGH2 in an organic solution (dry acetonitrile).
# The reaction was stopped after one minute by adding an acidic solution (pH 1.9) of ferric chloride and citrate (final concentrations 7 mM and 47 mM respectively), by which the PGH2 was sequestered (the PGH2 is reduced to mainly 12-hydroxy heptadecatrineoic acid (12-HHT) which is not detected by the subsequent PGE2 detection step). The resulting solution was then pH neutralized by addition of potassium phosphate buffer, prior to diluting an aliquot of the resulting solution in a weak potassium phosphate buffer (50 mM, pH 6.8) containing 0.2% BSA (w/v). […] The PGE2 formed was quantified by use of a commercial HTRF based kit (catalogue #62PG2PEC or #62P2APEC from Cisbio International). 100% activity was defined as the PGE2 production in positive controls subtracted by the PGE2 production in the negative controls. IC50 values were then determined using standard procedures.
row,SMILES,IC50
1,"NS(=O)(=O)c1ccccc1S(=O)(=O)NC(=O)c1ccc2oc(C3(O)CCCC3)cc2c1 [Example 77, 2-(1-Hydroxycyclopentyl)-N-(2-sulfamoylphenylsulfonyl)benzofuran-5-carboxamide]",720 nM
2,"NS(=O)(=O)c1ccccc1S(=O)(=O)NC(=O)c1ccc2oc(C3CCCC3)cc2c1 [Example 78, 2-Cyclopentyl-N-(2-sulfamoylphenylsulfonyl)benzofuran-5-carboxamide]",5700 nM
3,"NS(=O)(=O)c1ccccc1S(=O)(=O)NC(=O)c1ccc(Cl)cc1O [Example 81, 4-Chloro-2-hydroxy-N-(2-sulfamoylphenylsulfonyl)benzamide]",1000 nM
4,"NS(=O)(=O)c1ccccc1S(=O)(=O)NC(=O)c1ccc(Br)cc1O [Example 82, 4-Bromo-2-hydroxy-N-(2-sulfamoylphenylsulfonyl)benzamide]",540 nM
5,"CC(C)(C)C#Cc1ccc(C(=O)NS(=O)(=O)c2ccccc2S(N)(=O)=O)c(F)c1 [Example 84, 4-(3,3-Dimethylbut-1-ynyl)-2-fluoro-N-(2-sulfamoylphenylsulfonyl)benzamide]",170 nM
6,"NS(=O)(=O)c1ccccc1S(=O)(=O)NC(=O)c1ccc(C#CC2CCCCC2)cn1 [Example 88, 5-(Cyclohexylethynyl)-N-(2-sulfamoylphenylsulfonyl)picolinamide]",140 nM
7,"CC(C)(C)C#Cc1ccc(C(=O)NS(=O)(=O)c2ccccc2S(N)(=O)=O)nc1 [Example 89, 5-(3,3-Dimethylbut-1-ynyl)-N-(2-sulfamoylphenylsulfonyl)picolinamide]",1200 nM
8,"COc1c(C#CC(C)(C)C)ccc(C(=O)NS(=O)(=O)c2ccccc2S(N)(=O)=O)c1F [Example 90, 4-(3,3-Dimethylbut-1-ynyl)-2-fluoro-3-methoxy-N-(2-sulfamoylphenylsulfonyl)-benzamide]",260 nM
9,"NS(=O)(=O)c1ccccc1S(=O)(=O)NC(=O)c1ccc(C#Cc2ccccn2)nc1 [Example 94, 6-(Pyridin-2-ylethynyl)-N-(2-sulfamoylphenylsulfonyl)nicotinamide]",13000 nM
10,"NS(=O)(=O)c1ccccc1S(=O)(=O)NC(=O)c1ccc(C#Cc2cccnc2)nc1 [Example 95, 6-(Pyridin-3-ylethynyl)-N-(2-sulfamoylphenylsulfonyl)nicotinamide]",2000 nM
11,"CC(C)(C)C#Cc1ncc(C(=O)NS(=O)(=O)c2ccccc2S(N)(=O)=O)cn1 [Example 96, 2-(3,3-Dimethylbut-1-ynyl)-N-(2-sulfamoylphenylsulfonyl)pyrimidine-5-carboxamide]",1700 nM
12,"NS(=O)(=O)c1ccccc1S(=O)(=O)NC(=O)c1ccc(COCCC(F)(F)F)cc1 [Example 97, N-(2-Sulfamoylphenylsulfonyl)-4-((3,3,3-trifluoropropoxy)methyl)benzamide]",5100 nM
13,"CC(C)C#Cc1ccc(C(=O)NS(=O)(=O)c2ccccc2S(N)(=O)=O)cn1 [Example 99, 6-(3-Methylbut-1-ynyl)-N-(2-sulfamoylphenylsulfonyl)nicotinamide]",400 nM
14,"NS(=O)(=O)c1ccccc1S(=O)(=O)NC(=O)[C@H]1CC[C@@H](c2cc3ccccc3o2)CC1 [Example 105, (1s,4s)-4-(Benzofuran-2-yl)-N-(2-sulfamoylphenylsulfonyl)cyclohexanecarboxamide]",2100 nM
15,"NS(=O)(=O)c1ccccc1S(=O)(=O)NC(=O)[C@H]1CC[C@H](c2cc3ccccc3o2)CC1 [Example 106, (1r,4r)-4-(Benzofuran-2-yl)-N-(2-sulfamoylphenylsulfonyl)cyclohexanecarboxamide]",140 nM
16,"C[C@]1(C(=O)NS(=O)(=O)c2ccccc2S(N)(=O)=O)CC[C@H](c2cc3ccccc3o2)CC1 [Example 108, (1r,4r)-4-(Benzofuran-2-yl)-1-methyl-N-(2-sulfamoylphenylsulfonyl)cyclohexane-carboxamide]",7000 nM
17,"C[C@]1(C(=O)NS(=O)(=O)c2ccccc2S(N)(=O)=O)CC[C@@H](c2cc3ccccc3o2)CC1 [Example 109, (1s,4s)-4-(Benzofuran-2-yl)-1-methyl-N-(2-sulfamoylphenylsulfonyl) cyclohexane-carboxamide]",270 nM
18,"COc1cc(C(=O)NS(=O)(=O)c2ccccc2S(N)(=O)=O)ccc1C#CC(C)(C)C [Example 110, 4-(3,3-Dimethylbut-1-ynyl)-3-methoxy-N-(2-sulfamoylphenylsulfonyl)benzamide]",270 nM
19,"COC(C)(C)C#Cc1ccc(C(=O)NS(=O)(=O)c2ccccc2S(N)(=O)=O)cc1 [Example 112, 4-(3-Methoxy-3-methylbut-1-ynyl)-N-(2-sulfamoylphenylsulfonyl)benzamide]",1400 nM
20,"COc1cc(C(=O)NS(=O)(=O)c2ccccc2S(N)(=O)=O)ccc1C#CC(C)(C)OC [Example 114, 3-Methoxy-4-(3-methoxy-3-methylbut-1-ynyl)-N-(2-sulfamoylphenylsulfonyl)-benzamide]",1600 nM

# The next molecules have a lower IC50 than those just listed; values first:
row,IC50,SMILES
1,130 nM,"N#Cc1cc(C(=O)NS(=O)(=O)c2ccccc2S(N)(=O)=O)ccc1-c1cc2ccccc2o1 [Example 80, 4-(Benzofuran-2-yl)-3-cyano-N-(2-sulfamoylphenylsulfonyl)benzamide]"
2,120 nM,"NS(=O)(=O)c1ccccc1S(=O)(=O)NC(=O)c1ccc(-c2cc3ccccc3o2)cc1Cl [Example 91, 4-(Benzofuran-2-yl)-2-chloro-N-(2-sulfamoylphenylsulfonyl)benzamide]"
3,110 nM,"CC(C)(C)c1cc2cc(C(=O)NS(=O)(=O)c3ccccc3S(N)(=O)=O)ccc2o1 [Example 76, 2-tert-Butyl-N-(2-sulfamoylphenylsulfonyl)benzofuran-5-carboxamide]"
4,110 nM,"NS(=O)(=O)c1ccccc1S(=O)(=O)NC(=O)c1ccc(C#CC2CCCC2)c(CO)c1 [Example 98, 4-(Cyclopentylethynyl)-3-(hydroxymethyl)-N-(2-sulfamoylphenylsulfonyl)benzamide]"
5,80 nM,"CC(C)C#Cc1ccc(C(=O)NS(=O)(=O)c2ccccc2S(N)(=O)=O)cc1 [Example 113, 4-(3-Methylbut-1-ynyl)-N-(2-sulfamoylphenylsulfonyl)benzamide]"
6,71 nM,"COc1c(C#CC2CCCC2)ccc(C(=O)NS(=O)(=O)c2ccccc2S(N)(=O)=O)c1F [Example 86, 4-(Cyclopentylethynyl)-2-fluoro-3-methoxy-N-(2-sulfamoylphenylsulfonyl)benzamide]"
7,70 nM,"CC(C)(C)C#Cc1ccc(C(=O)NS(=O)(=O)c2ccccc2S(N)(=O)=O)cc1C#N [Example 79, 3-Cyano-4-(3,3-dimethylbut-1-ynyl)-N-(2-sulfamoylphenylsulfonyl)benzamide]"
8,70 nM,"NS(=O)(=O)c1ccccc1S(=O)(=O)NC(=O)c1ccc(C#Cc2ccccc2)c(CO)c1 [Example 100, 3-(Hydroxymethyl)-4-(phenylethynyl)-N-(2-sulfamoylphenylsulfonyl)benzamide]"
9,58 nM,"NS(=O)(=O)c1ccccc1S(=O)(=O)NC(=O)c1ccc(C#CC2CCCC2)nc1 [Example 93, 6-(Cyclopentylethynyl)-N-(2-sulfamoylphenylsulfonyl)nicotinamide]"
10,53 nM,"NS(=O)(=O)c1ccccc1S(=O)(=O)NC(=O)c1cnc(C#Cc2ccc(Cl)cc2)nc1 [Example 102, 2-((4-chlorophenyl)ethynyl)-N-(2-sulfamoylphenylsulfonyl)pyrimidine-5-carboxamide]"
11,49 nM,"NS(=O)(=O)c1ccccc1S(=O)(=O)NC(=O)c1ccc(C#CC2CCCC2)cc1F [Example 85, 4-(Cyclopentylethynyl)-2-fluoro-N-(2-sulfamoylphenylsulfonyl)benzamide]"
12,48 nM,"NS(=O)(=O)c1ccccc1S(=O)(=O)NC(=O)c1ccc(C#CC2CCCCC2)c(CO)c1 [Example 101, 4-(Cyclohexylethynyl)-3-(hydroxymethyl)-N-(2-sulfamoylphenylsulfonyl)benzamide]"
13,42 nM,"NS(=O)(=O)c1ccccc1S(=O)(=O)NC(=O)c1ccc(-c2cc3ccccc3o2)cc1F [Example 83, 4-(Benzofuran-2-yl)-2-fluoro-N-(2-sulfamoylphenylsulfonyl)benzamide]"
14,19 nM,"NS(=O)(=O)c1ccccc1S(=O)(=O)NC(=O)c1ccc(C#CC2CCCC2)cc1O [Example 92, 4-(Cyclopentylethynyl)-2-hydroxy-N-(2-sulfamoylphenylsulfonyl)benzamide]"
15,16 nM,"COc1c(-c2cc3ccccc3o2)ccc(C(=O)NS(=O)(=O)c2ccccc2S(N)(=O)=O)c1F [Example 87, 4-(Benzofuran-2-yl)-2-fluoro-3-methoxy-N-(2-sulfamoylphenylsulfonyl)benzamide]"
16,15 nM,"NS(=O)(=O)c1ccccc1S(=O)(=O)NC(=O)c1ccc(-c2cc3ccccc3o2)c(CO)c1 [Example 103, 4-(Benzofuran-2-yl)-3-(hydroxymethyl)-N-(2-sulfamoylphenylsulfonyl)benzamide]"
